This is an account of results in US7622441B2, “Sustained release pharmaceutical compounds to prevent abuse of controlled substances” (Shire LLC, priority 2002, dated 2009).

A short description of series [1]: Pharmacokinetics of peptide-amphetamine conjugates by oral administration (serum amphetamine by ELISA). Conditions: rat.
The nature of series [2]: Stability of narcotic conjugates in water (narcotic release, abuse resistance tests). Particulars: for % Release of Narcotic in Water: neutral pH; for H2O (1 h, 90 C.) / H2O (24 h, RT): numbers based upon narcotic release. It is filed as physicochemical. An excerpt:
It is also possible to further stabilize any unstable conjugates by tethering to a larger peptide. […] The conjugates are also stable at a wide range of pH's.

For series [3] the following is noted: intranasal; for Comments (curve) / Peak Time / % AUC / % Cmax: serum, buffer PBS; for Peak Time: multiple of hydrocodone's peak time; for % AUC / % Cmax: vs. hydrocodone.
Series [4] can be described thus: Pharmacokinetics of narcotic conjugates by oral administration (serum hydrocodone/oxycodone by ELISA). Conditions: for Shape of the Curve: rat serum concentration curve vs. parent drug; for Peak Time / % AUC / % Cmax: rat serum; for Peak Time: multiple of parent drug's peak time; for % AUC / % Cmax: vs. equivalent dose of parent drug. (An ELISA detects its analyte on a solid surface through an enzyme-linked reagent.)

In another series the test system is male Sprague-Dawley rats. The experiment in a line: Analgesia by paw lick latency (PLL), hot plate nociceptive model, subcutaneous injection. The series is classed as in vivo. On the set-up: Paw Lick Latency: unit not given beside the values. Conditions: for PLL: rat hot plate, cutoff time of 45 seconds; for Percent: PLL above basal level compared to HC; for Delta: basal PLL of untreated rats subtracted.

The mark [5] stands for this setting: male, Sprague-Dawley, in vivo, po.
Where [6] appears, read: oral solution in water, equivalent amount of amphetamine.
Setting [7] is: Table 12, 15 min., equivalent dose.
[8] abbreviates: Table 12, 30 min, equivalent dose.
The mark [9] stands for this setting: Table 12, Basal (0 h), before treatment.

Structures can show the parent of a compound that is named as a salt. Where two headings read alike, the source gives them in different places. Where a SMILES comes first, the peptide text is derived from it. Where no end group is shown, it is not given here. [ ]: non-standard residue; d: D form. The star is where a group is joined. ξ: configuration not given here. X2 = COc1ccc2c3c1OC1C(O*)=CCC4C(C2)N(C)CCC314; ξL = CC(C)CC(N)C(=O)O

The AUC(0-t) is the area under the concentration-time curve up to a stated or last time point. What is called Cmax is the highest concentration seen after dosing. In series [1] (setting [5]), `C[C@H](N)Cc1ccccc1` [Amphetamine, d-amphetamine sulfate, reference compound] returned an AUC(0-t) of 530 ng·h/mL and a peak concentration (Cmax) of 193 ng/mL.
For the compound `COc1ccc2c3c1OC1C(OC(=O)C(N)CCC(=O)O)=CCC4C(C2)N(C)CCC314` (stereo not shown) [Glu-HC, 6-O-Glu-Hydrocodone], the “% Release of Narcotic in Water” value in series [2] (0 Hours) is listed as 0%. In addition, the “% Release of Narcotic in Water” value in series [2] (1 Hour) is given as 4%. Also, in series [2] (6 Hours), the “% Release of Narcotic in Water” value was determined as 19%. In addition, in series [2] (24 Hours), the “% Release of Narcotic in Water” value turned out to be 42%. For the same compound, in series [2], the “H2O (1 h, 90 C.)” value was determined as 100 and the “H2O (24 h, RT)” value was 79. For the same compound, in series [3], the “Comments (curve)” value is given as “Flat curve”, the “Peak Time” value was found to be 6X, the “% AUC” value was found to be 60% and the “% Cmax” value is on record as 55%.
On to `COc1ccc2c3c1OC1C(OC(=O)OC[C@H]4OC(O)C(O)[C@H]4O)=CCC4[C@@H](C2)N(C)CC[C@]314.Cl` (stereo partly shown) [Ribose-HC], for which, in series [4], the “Shape of the Curve” value was “No change”, the “Peak Time” value was found to be 1X, the “% AUC” value was 106% and the “% Cmax” value came to 132%. In series [2], the “H2O (24 h, RT)” value is on record as 4. Moreover, in series [3], the “Comments (curve)” value is recorded as “No change”, the “Peak Time” value is reported as 1X, the “% AUC” value was found to be 20% and the “% Cmax” value is listed as 34%. In series [3] (compound still contained small amounts of free hydrocodone), the “inhibition of IN absorption” value is on record as “approximately 80%”.
Regarding Ala-Pro-Hydrocodone [Ala-Pro-HC], in series [2], the “H2O (1 h, 90 C.)” value turned out to be 100 and the “H2O (24 h, RT)” value was determined as 100.
In the case of `CC(Cc1ccccc1)NC(=O)C(N)CO` (stereo not shown) [Ser-Amp], in series [1] (setting [6]), the AUC 0-12 h was 290 ng·h/mL and the Cmax is on record as 146 +/− 85. In addition, in series [1] (oral, AUC relative to amphetamine), the “Percent Amphetamine (AUC 0-12 h)” value stood at 55%. The “Percent Amphetamine (Cmax)” value in series [1] (oral, Cmax relative to amphetamine) came to 76%.
For `CC(Cc1ccccc1)NC(=O)[C@@H](N)Cc1ccccc1` (stereo partly shown) [Phe-Amp], in series [1] (oral), the “Cmax and AUC compared with those of the parent drug” value was “nearly equal”. For the same compound, in series [1] (setting [6]), the AUC 0-12 h worked out at 505 ng·h/mL and the Cmax is listed as 175 +/− 77.
Regarding `COc1ccc2c3c1OC1C(OC(=O)C(C)(C)N)=CCC4C(C2)N(C)CCC314` (stereo not shown) [Aib-HC], in series [2], the “H2O (1 h, 90 C.)” value came to 45 and the “H2O (24 h, RT)” value is on record as 0.
In the same order, the values of `COc1ccc2c3c1O[C@H]1C(OC(=O)[C@@H](N)CC(C)C)=CC[C@H]4[C@@H](C2)N(C)CC[C@]314` [Leu-HC, Leu-Hydrocodone] are 49 and 10.
In the same order, the values of `COc1ccc2c3c1OC1C(OC(=O)C(N)CO)=CCC4C(C2)N(C)CCC314` (stereo not shown) [Ser-HC] are 98 and 45.
Consider `COc1ccc2c3c1OC1C(OC(=O)C4CCCN4C(=O)C(C)NC(=O)OC(C)(C)C)=CCC4C(C2)N(C)CCC314` (stereo not drawn) [Boc-Ala-Pro-HC, Boc-Ala-Pro-Hydrocodone], for which, in series [4], the “Shape of the Curve” value is reported as “++Clearance”, the “Peak Time” value was 1X, the “% AUC” value stood at 60% and the “% Cmax” value is reported as 97%.
On to `COc1ccc2c3c1O[C@H]1C(OC(=O)[C@@H]4CCCN4)=CC[C@H]4[C@@H](C2)N(C)CC[C@]314` [Pro-HC, 6-O-Pro-Hydrocodone], for which the “% Release of Narcotic in Water” value is recorded as 4% in series [2] (0 Hours), 11% in series [2] (1 Hour), 25% in series [2] (6 Hours) and 71% in series [2] (24 Hours). In addition, the “H2O (1 h, 90 C.)” value in series [2] was 97. In series [2], the “H2O (24 h, RT)” value is on record as 71.
As for `COc1ccc2c3c1OC1C(OC(=O)C(CC(C)C)NC(=O)C(CC(C)C)NC(=O)C(N)CC(C)C)=CCC4C(C2)N(C)CCC314` (stereo not shown) [LLL-HC], the “Paw Lick Latency” value in the series on male Sprague-Dawley rats (Table 12, 60, equivalent dose) worked out at 3.2; in the series on male Sprague-Dawley rats (setting [7]), 5.7; in the series with male Sprague-Dawley rats (setting [8]), 3.9; in the series with male Sprague-Dawley rats (setting [9]), 4.1.
In the case of `COc1ccc2c3c1O[C@H]1C(=O)CC[C@H]4[C@@H](C2)N(C)CC[C@]314` [Hydrocodone], the PLL in the series with male Sprague-Dawley rats (30 minutes, subcutaneous) is recorded as 40; with male Sprague-Dawley rats (45 minutes, subcutaneous), 26.7. Moreover, the Percent in the series on male Sprague-Dawley rats (30 minutes) and in the series with male Sprague-Dawley rats (45 minutes) was 100% in each case. Besides, the figures for the Delta with male Sprague-Dawley rats (30 minutes) and with male Sprague-Dawley rats (45 minutes) were 34 and 19.9, respectively. In addition, the “Paw Lick Latency” value in the series on male Sprague-Dawley rats (Table 11, 15 min., subcutaneous) was 25.5; in the series on male Sprague-Dawley rats (Table 11, 30 min, subcutaneous), 42.4; in the series on male Sprague-Dawley rats (Table 11, 45 min., subcutaneous), 36.3; in the series on male Sprague-Dawley rats (Table 11, 60 min., subcutaneous), 26.6; with male Sprague-Dawley rats (Table 11, Basal (0 h), before treatment), 5.5; in the series on male Sprague-Dawley rats (Table 12, 60, equivalent dose), 15.1. Further, the “Paw Lick Latency” value stood at 31.9 with male Sprague-Dawley rats (setting [7]), 24.5 in the series on male Sprague-Dawley rats (setting [8]) and 5.6 with male Sprague-Dawley rats (setting [9]). The “Comments (curve)” value in series [3] was “Rapid”. In addition, in series [3], the “Peak Time” value is reported as 1X. Moreover, in series [3], the “% AUC” value came out at 100%. In series [3], the “% Cmax” value is listed as 100%.
Turning to `CCC(C)C(N)C(=O)OC1=CCC2C3Cc4ccc(OC)c5c4C2(CCN3C)C1O5` (stereo not shown) [Ile-HC], in series [2], the “H2O (1 h, 90 C.)” value was determined as 46 and the “H2O (24 h, RT)” value is given as 16.
Take “Glu5-HC: pentapeptide conjugate of hydrocodone (SEQ ID NO: 2) (EEEEE; also: hydrocodone conjugate)”: the “H2O (1 h, 90 C.)” value in series [2] was 53.
Take `COc1ccc2c3c1OC1C(OC(=O)CN)=CCC4C(C2)N(C)CCC314` (stereo not shown) [Gly-HC, 6-O-Gly-Hydrocodone]: the “% Release of Narcotic in Water” value is reported as 6% in series [2] (0 Hours), 8% in series [2] (1 Hour), 11% in series [2] (6 Hours) and 32% in series [2] (24 Hours). Besides, the “H2O (1 h, 90 C.)” value in series [2] is 63. Moreover, in series [2], the “H2O (24 h, RT)” value is 26.
Take `COc1ccc2c3c1OC1C(OC(=O)C(CC(C)C)NC(=O)CNC(=O)CNC(=O)CNC(=O)CN)=CCC4C(C2)N(C)CCC314` (stereo not drawn) [GGGGL-HC, Gly-Gly-Gly-Gly-Leu-Hydrocodone] (H-GGGG[ξL]-X2): the “Paw Lick Latency” value was 5 with male Sprague-Dawley rats (Table 12, 60, 2× the equivalent dose); 3.6 with male Sprague-Dawley rats (Table 12, 60, equivalent dose); 3 with male Sprague-Dawley rats (Table 12, 15 min., 2× the equivalent dose); 6.8 in the series with male Sprague-Dawley rats (setting [7]); 5.6 in the series on male Sprague-Dawley rats (Table 12, 30 min, 2× the equivalent dose); 5.6 in the series on male Sprague-Dawley rats (setting [8]). The “Paw Lick Latency” value was 7.5 with male Sprague-Dawley rats (setting [9]) and 2.2 in the series with male Sprague-Dawley rats (Table 12, Basal (0 h), group given 2× the equivalent dose).
For the compound `COc1ccc2c3c1OC1C(OC(=O)C(N)Cc4ccccc4)=CCC4C(C2)N(C)CCC314` (stereo not shown) [Phe-HC], in series [2], the “H2O (1 h, 90 C.)” value amounted to 54.
